Measured values published in US11814392B2, “Chromenopyridine-based compounds and methods of making and use thereof” (Rosalind Franklin University of Medicine and Science, priority 2020, dated 2023).

Legend:
MDA-MB-468 = experiment: NCI 60 five-dose screening, MDA-MB-468; format: cell-based, human
UACC-62 = experiment: NCI 60 five-dose screening, UACC-62
Description: (§1) The National Cancer Institute's Developmental Therapeutic preclinical 60 human cancer cell lines were used for an in vitro screen. […] The one-dose and five-dose experiments were conducted according to standard NCI protocols.
(§2) The human tumor cell lines of the cancer screening panel are grown in RPMI 1640 medium containing 5% fetal bovine serum and 2 mM L-glutamine. For a typical screening experiment, cells are inoculated into 96 well microtiter plates in 100 μL at plating densities ranging from 5,000 to 40,000 cells/well depending on the doubling time of individual cell lines. After cell inoculation, the microtiter plates are incubated at 37° C., 5% CO2, 95% air and 100% relative humidity for 24 h prior to addition of experimental drugs.
(§3) After 24 h, two plates of each cell line are fixed in situ with TCA, to represent a measurement of the cell population for each cell line at the time of drug addition (Tz). […]
(§4) Following drug addition, the plates are incubated for an additional 48 h at 37° C., 5% CO2, 95% air, and 100% relative humidity. […] Bound stain is subsequently solubilized with 10 mM trizma base, and the absorbance is read on an automated plate reader at a wavelength of 515 nm. […] Using the seven absorbance measurements [time zero, (Tz), control growth, (C), and test growth in the presence of drug at the five concentration levels (Ti)], the percentage growth is calculated at each of the drug concentrations levels. Percentage growth inhibition is calculated as: [(Ti−Tz)/(C−Tz)]×100 for concentrations for which Ti>/=Tz [(Ti−Tz)/Tz]×100 for concentrations for which Ti<Tz.
(§5) Three dose response parameters are calculated for each experimental agent. […] The drug concentration resulting in total growth inhibition (TGI) is calculated from Ti=Tz. […] Values are calculated for each of these three parameters if the level of activity is reached; however, if the effect is not reached or is exceeded, the value for that parameter is expressed as greater or less than the maximum or minimum concentration tested.

HS578T = experiment: NCI 60 five-dose screening, HS578T; format: cell-based, human; settings: HS578T (Breast Cancer), 48 h
PMCT = target: T1, PMCT (Homo sapiens, UniProt Q86YT5); experiment: PMCT inhibition, citrate transport assay of whole HEK293T cells; format: cell-based
T1 construct: expressed in transfected cells; host or cells: HEK293T cells transfected with pcDNA3.1(+)-SLC13A5 using PEI
T1 sequence (Q86YT5 whole entry): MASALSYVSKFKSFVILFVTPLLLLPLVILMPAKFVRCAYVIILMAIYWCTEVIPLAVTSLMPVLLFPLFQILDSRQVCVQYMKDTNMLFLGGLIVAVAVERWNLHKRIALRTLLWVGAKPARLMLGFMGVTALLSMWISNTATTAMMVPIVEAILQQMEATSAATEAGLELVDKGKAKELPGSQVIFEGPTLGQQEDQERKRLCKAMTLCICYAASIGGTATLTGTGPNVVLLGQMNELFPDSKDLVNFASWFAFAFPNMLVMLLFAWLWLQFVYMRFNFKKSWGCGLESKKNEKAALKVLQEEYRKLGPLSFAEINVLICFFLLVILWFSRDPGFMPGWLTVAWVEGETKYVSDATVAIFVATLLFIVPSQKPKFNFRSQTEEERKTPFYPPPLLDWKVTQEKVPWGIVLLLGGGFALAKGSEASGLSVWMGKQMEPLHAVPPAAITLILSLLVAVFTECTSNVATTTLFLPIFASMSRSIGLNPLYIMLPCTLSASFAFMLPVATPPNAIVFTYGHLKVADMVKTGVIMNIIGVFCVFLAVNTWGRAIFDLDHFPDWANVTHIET

MDA-MB-435 = experiment: NCI 60 five-dose screening, MDA-MB-435
Description: as §1, §2, §3, §4, §5

HCT-116 = experiment: NCI 60 five-dose screening, HCT-116
Description: as §1, §2, §3, §4, §5

OVCAR-4 = experiment: NCI 60 five-dose screening, OVCAR-4
Description: as §1, §2, §3, §4, §5

NCI-H226 = experiment: NCI 60 five-dose screening, NCI-H226
Description: (§6) The one-dose and five-dose experiments were conducted according to standard NCI protocols.
as §2
(§7) After 24 h, two plates of each cell line are fixed in situ with TCA, to represent a measurement of the cell population for each cell line at the time of drug addition (Tz). Experimental drugs are solubilized in dimethyl sulfoxide at 400-fold the desired final maximum test concentration and stored frozen prior to use. […]
as §4, §5

U251 = experiment: NCI 60 five-dose screening, U251
Description: as §1, §2, §3, §4, §5

SW-620 = experiment: NCI 60 five-dose screening, SW-620
Description: as §1, §2, §3, §4, §5

SF-295 = experiment: NCI 60 five-dose screening, SF-295
Description: as §1, §2, §3, §4, §5

HOP-92 = experiment: NCI 60 five-dose screening, HOP-92
Description: as §6, §2, §7, §4, §5

SN12C = experiment: NCI 60 five-dose screening, SN12C; format: cell-based, human; settings: SN12C (Renal Cancer), 48 h
BT-549 = experiment: NCI 60 five-dose screening, BT-549
Description: as §1, §2, §3, §4, §5

MOLT-4 = experiment: NCI 60 five-dose screening, MOLT-4
Description: as §1, §2, §3, §4, §5

HL-60 (TB) = experiment: NCI 60 five-dose screening, HL-60 (TB); format: cell-based, human; settings: HL-60 (TB) (Leukemia), 48 h
OVCAR-3 = experiment: NCI 60 five-dose screening, OVCAR-3; format: cell-based, human
OVCAR-5 = experiment: NCI 60 five-dose screening, OVCAR-5
Description: as §1, §2, §3, §4, §5

RXF 393 = experiment: NCI 60 five-dose screening, RXF 393
Description: as §6, §2
After 24 h, two plates of each cell line are fixed in situ with TCA, to represent a measurement of the cell population for each cell line at the time of drug addition (Tz). Experimental drugs are solubilized in dimethyl sulfoxide at 400-fold the desired final maximum test concentration and stored frozen prior to use. At the time of drug addition, an aliquot of frozen concentrate is thawed and diluted to twice the desired final maximum test concentration with complete medium containing 50 μg/ml gentamicin. Additional four, 10-fold or ½ log serial dilutions are made to provide a total of five drug concentrations plus control. Aliquots of 100 μl of these different drug dilutions are added to the appropriate microtiter wells already containing 100 μl of medium, resulting in the required final drug concentrations.
Following drug addition, the plates are incubated for an additional 48 h at 37° C., 5% CO2, 95% air, and 100% relative humidity. For adherent cells, the assay is terminated by the addition of cold TCA. Cells are fixed in situ by the gentle addition of 50 μl of cold 50% (w/v) TCA (final concentration, 10% TCA) and incubated for 60 minutes at 4° C. […] Bound stain is subsequently solubilized with 10 mM trizma base, and the absorbance is read on an automated plate reader at a wavelength of 515 nm. […] Using the seven absorbance measurements [time zero, (Tz), control growth, (C), and test growth in the presence of drug at the five concentration levels (Ti)], the percentage growth is calculated at each of the drug concentrations levels. Percentage growth inhibition is calculated as: [(Ti−Tz)/(C−Tz)]×100 for concentrations for which Ti>/=Tz [(Ti−Tz)/Tz]×100 for concentrations for which Ti<Tz.
as §5

EKVX = experiment: NCI 60 five-dose screening, EKVX; settings: 48 h
Description: as §1, §2, §3, §4, §5

HT29 = experiment: NCI 60 five-dose screening, HT29
Description: as §1, §2, §3, §4, §5

SK-MEL-2 = experiment: NCI 60 five-dose screening, SK-MEL-2
Description: as §1, §2, §3, §4, §5

NCI-H23 = experiment: NCI 60 five-dose screening, NCI-H23
Description: as §6, §2, §7, §4, §5

UO-31 = experiment: NCI 60 five-dose screening, UO-31
Description: as §1, §2, §3, §4, §5

[1] = RXF 393 (Renal Cancer), five-dose, 48 h

COc1ccc(SC2c3cc(OC)c(OC)cc3Oc3nc(N)c(C#N)c(N)c32)cc1 (centres unmarked) [Compound 1, 2,4-diamino-7,8-dimethoxy-5-((4-methoxyphenyl)thio)-5H-chromeno[2,3-b]pyridine-3-carbonitrile]
CC50 (MDA-MB-468; Homo sapiens, MDA-MB-468, 48 h, read-out: LC50): 5620 nM | GI50 (MDA-MB-468; Homo sapiens, MDA-MB-468 (Breast Cancer), five-dose, 48 h): 320 nM | TGI (MDA-MB-468; MDA-MB-468 (Breast Cancer), five-dose, 48 h): 1530 nM | GI50 (UACC-62; Homo sapiens, UACC-62, 48 h): 440 nM | CC50 (UACC-62; Homo sapiens, UACC-62, 48 h, read-out: LC50): 4300 nM | TGI (UACC-62; UACC-62 (Melanoma), five-dose, 48 h): 1730 nM | TGI (HS578T): 4160 nM | GI50 (HS578T; Homo sapiens, Hs-578T): 1800 nM | IC50 (PMCT; HEK293T cells): 9800 nM | dose-dependence of PMCT inhibition (PMCT; HEK293T cells, even at moderate concentrations (FIG. 1)): dose-dependent inhibition | inhibition at 5 µM (PMCT; HEK-293T, read-out: PMCT Inhibition, Inhibitor Concentration 5 μM, HEK293T cells): 50.1% | inhibition at 20 µM (PMCT; HEK-293T, read-out: PMCT Inhibition, Inhibitor Concentration 20 μM, HEK293T cells): 75.6% | inhibition at 40 µM (PMCT; HEK-293T, read-out: PMCT Inhibition, Inhibitor Concentration 40 μM, HEK293T cells): 50.2% | inhibition at 200 µM (PMCT; HEK-293T, read-out: PMCT Inhibition, Inhibitor Concentration 200 μM, HEK293T cells): 32.1% | inhibition at 1000 µM (PMCT; HEK-293T, read-out: PMCT Inhibition, Inhibitor Concentration 1000 μM, HEK293T cells): 62.8% | GI50 (MDA-MB-435; Homo sapiens, MDA-MB-435, 48 h): 1500 nM | CC50 (MDA-MB-435; Homo sapiens, MDA-MB-435, 48 h, read-out: LC50): 5700 nM | TGI (MDA-MB-435; MDA-MB-435 (Melanoma), five-dose, 48 h): 2920 nM | TGI (HCT-116; HCT-116 (Colon Cancer), five-dose, 48 h): 2160 nM | GI50 (HCT-116; Homo sapiens, HCT-116, 48 h): 680 nM | CC50 (HCT-116; Homo sapiens, HCT-116, 48 h, read-out: LC50): 5340 nM | GI50 (OVCAR-4; Homo sapiens, OVCAR-4, 48 h): 1330 nM | CC50 (OVCAR-4; Homo sapiens, OVCAR-4, 48 h, read-out: LC50): 5590 nM | TGI (OVCAR-4; OVCAR-4 (Ovarian Cancer), five-dose, 48 h): 2730 nM | GI50 (NCI-H226; Homo sapiens, NCI-H226, 48 h): 1370 nM | CC50 (NCI-H226; Homo sapiens, NCI-H226, 48 h, read-out: LC50): 5230 nM | TGI (NCI-H226; NCI-H226 (Non-small cell Lung), five-dose, 48 h): 2680 nM | GI50 (U251; Homo sapiens, U-251, 48 h): 950 nM | CC50 (U251; Homo sapiens, U-251, 48 h, read-out: LC50): 4830 nM | TGI (U251; U251 (CNS Cancer), five-dose, 48 h): 2180 nM | GI50 (SW-620; Homo sapiens, SW-620, 48 h): 1240 nM | CC50 (SW-620; Homo sapiens, SW-620, 48 h, read-out: LC50): 8290 nM | TGI (SW-620; SW-620 (Colon Cancer), five-dose, 48 h): 3200 nM | GI50 (SF-295; Homo sapiens, SF-295, 48 h): 1600 nM | CC50 (SF-295; Homo sapiens, SF-295, 48 h, read-out: LC50): 5480 nM | TGI (SF-295; SF-295 (CNS Cancer), five-dose, 48 h): 2960 nM | TGI (HOP-92; HOP-92 (Non-small cell Lung), five-dose, 48 h): 2720 nM | GI50 (HOP-92; Homo sapiens, HOP-92, 48 h): 1240 nM | CC50 (HOP-92; Homo sapiens, HOP-92, 48 h, read-out: LC50): 5990 nM | GI50 (SN12C; Homo sapiens): 1060 nM | TGI (SN12C): 2490 nM | TGI (BT-549; BT-549 (Breast Cancer), five-dose, 48 h): 2190 nM | GI50 (BT-549; Homo sapiens, BT-549, 48 h): 1020 nM | CC50 (BT-549; Homo sapiens, BT-549, 48 h, read-out: LC50): 4720 nM | GI50 (MOLT-4; Homo sapiens, MOLT-4, 48 h): 310 nM | CC50 (MOLT-4; Homo sapiens, MOLT-4, 48 h, read-out: LC50): > 100000 nM | TGI (MOLT-4; MOLT-4 (Leukemia), five-dose, 48 h): 1600 nM | TGI (HL-60 (TB)): 1270 nM | GI50 (HL-60 (TB); Homo sapiens): 340 nM | CC50 (OVCAR-3; Homo sapiens, OVCAR-3, 48 h, read-out: LC50): 5030 nM | GI50 (OVCAR-3; Homo sapiens, OVCAR-3 (Ovarian Cancer), five-dose, 48 h): 1060 nM | TGI (OVCAR-3; OVCAR-3 (Ovarian Cancer), five-dose, 48 h): 2310 nM | GI50 (OVCAR-5; Homo sapiens, OVCAR-5, 48 h): 1750 nM | CC50 (OVCAR-5; Homo sapiens, OVCAR-5, 48 h, read-out: LC50): 6660 nM | TGI (OVCAR-5; OVCAR-5 (Ovarian Cancer), five-dose, 48 h): 3390 nM | GI50 (RXF 393; Homo sapiens, RXF 393, 48 h, RXF 393 (Renal Cancer), five-dose, 48 h): 450 nM | CC50 (RXF 393; Homo sapiens, RXF 393, 48 h, read-out: LC50): 4520 nM | GI50 (RXF 393; [1]): 740 nM | TGI (RXF 393; [1]): 2010 nM | TGI (EKVX; EKVX (Non-small cell Lung), five-dose): 3340 nM | GI50 (EKVX; Homo sapiens, EKVX): 1740 nM | CC50 (EKVX; Homo sapiens, EKVX, read-out: LC50): 6420 nM | TGI (HT29; HT29 (Colon Cancer), five-dose, 48 h): 5040 nM | GI50 (HT29; Homo sapiens, HT-29, 48 h): 2160 nM | CC50 (HT29; Homo sapiens, HT-29, 48 h, read-out: LC50): > 100000 nM | GI50 (SK-MEL-2; Homo sapiens, SK-MEL-2, 48 h): 1370 nM | CC50 (SK-MEL-2; Homo sapiens, SK-MEL-2, 48 h, read-out: LC50): 5760 nM | TGI (SK-MEL-2; SK-MEL-2 (Melanoma), five-dose, 48 h): 2800 nM | GI50 (NCI-H23; Homo sapiens, NCI-H23, 48 h): 1450 nM | CC50 (NCI-H23; Homo sapiens, NCI-H23, 48 h, read-out: LC50): 6250 nM | TGI (NCI-H23; NCI-H23 (Non-small cell Lung), five-dose, 48 h): 3010 nM | GI50 (UO-31; Homo sapiens, UO-31, 48 h): 1340 nM | CC50 (UO-31; Homo sapiens, UO-31, 48 h, read-out: LC50): 5110 nM | TGI (UO-31; UO-31 (Renal Cancer), five-dose, 48 h): 2610 nM
